Data published in PMC3496387 (Molecular pharmaceutics, 2009).
Where two headings read alike, the source gives them in different places.

Experiments:
[1] = n=3
[2] = Stability in rat intestinal; type: in vitro ADME; conditions: rat intestinal perfusate, similar conditions, control compound
[3] = isotonic buffer pH 1.2, 37°C, * = estimated half lives
[4] = isotonic buffer pH 4.0, 37°C, * = estimated half lives
[5] = isotonic buffer pH 6.0, 37°C, * = estimated half lives

With `NC(Cc1ccccc1)C(=O)OCOC(=O)c1ccccc1` (stereo not drawn) [BA-Me-Phe, (2-amino-3-phenylpropanoyloxy) methyl benzoate] the “Half lives, t1/2” value [1, 3] was 193 min, the “Half lives, t1/2” value [1, 4] was 385 min and the “Half lives, t1/2” value [1, 5] was 2.1 min.
With `CC(OC(=O)c1ccccc1)OC(=O)[C@@H](N)Cc1ccccc1` (stereo partly drawn) [BA-Et-Phe, 1-((S)-2-amino-3-phenylpropanoyloxy) ethyl benzoate] the “Half lives, t1/2” value [1, 3] was 1732 min, the “Half lives, t1/2” value [1, 4] was 3465 ^* min and the “Half lives, t1/2” value [1, 5] was 385 ± 19 min. For the same molecule, the “Half lives, t1/2” value ([1]; isotonic buffer pH 7.4, 37°C) was 24 ± 2 min.
For `CC(C)C[C@H](NC(=O)[C@H](Cc1ccccc1)NC(=O)CNC(=O)CNC(=O)[C@@H](N)Cc1ccc(O)cc1)C(=O)O` [leu-enkephalin], the “time to complete hydrolysis” value [2] was ≤ 1 h.
In the case of `CC(OC(=O)Cc1ccccc1)OC(=O)C(N)C(C)C` (stereo not drawn) [PA-Et-Val, 1-(2-phenylacetoxy) ethyl 2-amino-3-methylbutanoate], the “Half lives, t1/2” value [1, 3] is reported as 11550 ^* min, the “Half lives, t1/2” value [1, 4] is reported as 23100 ^* min and the “Half lives, t1/2” value [1, 5] is reported as 1732.5 min. For the same molecule, the “Half lives, t1/2” value ([1]; isotonic buffer pH 7.4, 37°C) was 50 ± 14.8 min.
